Activity calls are given as the source filed them. The rule behind the calls is not given here.

Assay [1] deals with Fasciola hepatica. Put plainly: Antiparasitic activity against endo parasite Fasciola hepatica in mouse at a dose of 190 mg/kg; Active. Format: functional, organism-based. Further details: dose 190 mg/kg.
In assay [2] the test system is Dipetalogaster maximus. Put plainly: Antiparasitic activity against ecto parasite Dipetalogaster maximus in mouse at a dose of 190 mg/kg; Active. Format: functional, organism-based. Further details: dose 190 mg/kg.

Take `COc1cc2cc(C)c(C(C)=O)c(O)c2c(O)c1-c1c(OC)cc2cc(C)c(C(C)=O)c(O)c2c1O`: the result in assay [1] and in assay [2] was Active.

The values above are taken from ChEMBL document CHEMBL1129869, “SPORANDOL: A NOVEL ANTIPARASITIC BINAPHTHALENE FROM CHRYSOSPORIUM MERIDARIUM” (Bioorg Med Chem Lett, 1997).
